In patent publication US6670329B2, “Selenocosmia huwena toxin and analgesic uses thereof” (priority 2000, dated 2003):
Where “and” joins values, the source holds several entries; their conditions need not be identical. Equal entries are not always repeated.

Key:
Sprague-Dawley rats = details: rat, in vivo
Procedure: Adult Sprague-Dawley rats were anesthetized with 2% sodium pentobarbital (40 mg/kg, ip.). The neck skin was cut to expose the occipital membrane. HWAP-I, formulated in normal saline, was administered by a PE-10 polyethylene tube (14 cm) inserted into the epidural space (depth of insert: 7 cm) to the site of intumescence at the rats' waist. The insertion position of the tube was confirmed by anatomization after the experiment.
Pain tolerance assays were performed 1-4 days after the operation. A healthy rat was put into a fixed canister with its tail drooping from the bottom of the vessel. There were three spots on the tail labeled for irradiation. The intensity of light was adjusted so that the tail flick latency (TFL) of rat was within 2-4 seconds. The average of TFLs determined three times before drug treatment was deemed the baseline pain threshold of the rat. HWAP-I was administered to the rat using the inserted tube. After 20 minutes, the pain threshold was determined. The analgesic effect (AE) was calculated according the following formula: [formula]
wherein Tp is the TLF post-drug treatment, and TB is the baseline pain threshold.
The upper limit of the increased rate of pain threshold was 200% in order to avoid hurting the skin of rat-tail, e.g.., when the baseline pain threshold was 3 seconds. Irradiation was stopped as soon as the TFL exceeded 9 seconds.
54 rats (160-220 g), of either gender, whose TB basic pain thresholds were within 3-4 seconds, were chosen and divided randomly into six groups of nine rats. The rats in each group were treated with HWAP-I at a dose of 120 μg/kg, 180 μg/kg, 240 μg/kg, 300 μg/kg, 360 μg/kg respectively and with normal saline in control group.

New Zealand rabbits = details: rabbit, in vivo
[1] = system: low-voltage-activated Ca2+ channel; assay: Ca2+ channel inhibition assay, low-voltage-activated channel; assay type: cell-based
Procedure: (§1) Ca^2+ channel Inhibition Assay. […] Cells were cultured in 90% Dulbecco's modified Eagle's medium (DMEM) with 10% newborn calf serum, hypoxanthine aminopterin thymidine supplement and penicillin-streptomycin. Cells were transferred to plates for electrophysiological experiments and cultured with 1% calf serum and […] DMEM. Prostaglandin E1 (10 μM) and 3-isobutyl-1-methylxanthine (50 μM) were added to the medium. Macroscopic Ca^2+ channel currents (filtered at 10 kHz, digitized at […] with a EPC-9 patch clamp amplifier, HEKA Electronics, Germany) were recorded at room temperature using Ba^2+ as the charge carrier. Cells were held at −40 mV potential and then depolarized to 0 mV. […] Inhibition was dose dependent. The EC50 for inhibition was approximately 100 nM (EC50≈100 nM). HWAP-I is highly specific for this channel as the low-voltage-activated Ca^2+ channel was unaffected.

[2] = system: high-voltage-activated Ca2+ channel expressed in prostaglandin E1 differentiated NG108-15 cells; assay: Ca2+ channel inhibition assay (patch clamp, Ba2+ as charge carrier); assay type: cell-based
Procedure: as §1

rats = assay: rat tail flick pain threshold, subarachnoid space administration; assay type: in vivo; details: for increase of pain threshold: in an hour
Procedure: The method was testing using the rat experimental system. After anesthesia, the neck skin of a rat was cut. The occcipital membrane was exposed and a hole with 1 mm diameter was made with #5 needle. […] The insertion position of the tube was later confirmed by anatomization after experiment.
Assays were performed in 1-3 days after the operation. 28 rats (130-230 g), of either gender, whose basic pain thresholds were within 2-4 seconds, were chosen and divided randomly into four groups of seven rats.

[3] = system: mouse phrenic nerve-diaphragm preparation; assay: mouse phrenic nerve-diaphragm assay for inhibition of neuromuscular transmission

| Compound | adverse effects (Sprague-Dawley rats) | analgesic effect (Sprague-Dawley rats) | duration time of analgesic effect (Sprague-Dawley rats) | increase of pain threshold (Sprague-Dawley rats) | analgesic effect in formalin pain model (New Zealand rabbits) | duration of the analgesic effect (New Zealand rabbits) [h] | toxic side effects (New Zealand rabbits) | effect on low-voltage-activated Ca2+ channel [1] | inhibition of the Ca2+ current ([2]; 10 μM, held at −40 mV, depolarized to 0 mV) | EC50 ([2]; NG108-15 cells, room temperature, read-out: EC50 for inhibition of Ca2+ current) [nM] | duration of analgesic effect compared with morphine hydrochloride (5 μg/kg) (rats; subarachnoid) | increase of pain threshold (rats; subarachnoid, 1.5 μg/kg) | duration of analgesic effect (rats; subarachnoid, 3.0 μg/kg) | increase of pain threshold (rats; subarachnoid, 3.0 μg/kg) [%] | adverse effects (rats; subarachnoid, 8 μg/kg, most restored to normal without sequela) | analgesic effect (rats; subarachnoid, 0.6, 1.5, 3.0 μg/kg) | duration of block of neuromuscular transmission ([3]; 1·10^−5 g/ml) [min] | effect on indirect twitch response ([3]; electrical stimulation of phrenic nerve) | analgesic effect decreased from maximum to, within a single hour (Sprague-Dawley rats) [%] |
| --- | --- | --- | --- | --- | --- | --- | --- | --- | --- | --- | --- | --- | --- | --- | --- | --- | --- | --- | --- |
| NH2-Ala-Cys-Lys-Gly-Val-Phe-Asp-Ala-Cys-Thr-Pro-Gly-Lys-Asn-Glu-Cys -Cys-Pro-Asn-Arg-Val-Cys-Ser-Asp-Lys-His-Lys-Trp-Cys-Lys-Trp-Lys-Leu-COOH (H-ACKGVFDACTPGKNECCPNRVCSDKHKWCKWKL-OH; cysteine pairing not given here) [HWAP-I] | ataxia in the quarters | had analgesic effects | over 3 hours | 50-70% and 100% | potent and robust analgesic effect | 5 to 6 | no obvious toxic side effects were observed | unaffected | potent inhibitor | ~100 | longer than that of morphine | 40-50% | over 3 hours | 100 | becoming ataxic in the quarters | had analgesic effects | 14.3 ± 3.2 | inhibition of the indirect twitch response |  |
| CN1CC[C@]23c4c5ccc(O)c4O[C@H]2[C@@H](O)C=C[C@H]3[C@H]1C5.Cl [morphine, morphine hydrochloride, reference compound] |  |  |  |  |  |  |  |  |  |  |  |  |  |  |  |  |  |  | 50 |
